Tests used:
Assay in all cases: minimum bactericidal concentration (MBC) assay
Type in all cases: cell-based
[1] = test system: Enterococcus faecalis
Experimental: (§1) Synergy was also assayed by both agar, and broth microdilution methods. Additional information gathered about the synergistic effect of the described composition as a combination therapy was evaluated by determining bacterial killing effect. This was performed as described above for the checkerboard synergy assay with the exception that the bacterial count in an assay well was determined by plating at the beginning of the experiment, and identifying at the end of incubation for an assay well where growth was inhibited. This has been adapted from both the broth microdilution, and the bactericidal assays (Clinical Laboratory Standards Institute (1999) Methods for Determining Bactericidal Activity of Antimicrobial Agents; Approved Guideline M26-A, Vol. 19, No. 18). […] The value derived was the reduction in bacterial numbers (viability) for the compounds when alone versus the described composition comprising the combined antibiotics.
(§2) As there is no published definition for bactericidal synergy, MIC metric was utilized.

[2] = test system: Staphylococcus aureus
Experimental: as §1, §2

[3] = test system: Escherichia coli
Experimental: as §1, §2

[4] = test system: Pseudomonas aeruginosa
Experimental: as §1, §2

C[C@@H]1O[C@@H]1P(=O)(O)O [Fosfomycin, cis-1,2-epoxypropyl phosphonic acid]
MBC, lowest concentration providing a >3-log reduction within 24 hours (Combo as F/DP/SM; second compound as DP/SM) ([1]; Enterococcus faecalis (ATCC 29212)): ≥512 μg/ml | MBC, lowest concentration providing a >3-log reduction within 24 hours (Combo as F/DP/SM; second compound as DP/SM) ([1]; Enterococcus faecalis (MGH-01) (VanA)): ≥512 μg/ml | MBC, lowest concentration providing a >3-log reduction within 24 hours (Combo as F/DP/SM; second compound as DP/SM) ([1]; Enterococcus faecalis (MGH-06)): 512 μg/ml | MBC, lowest concentration providing a >3-log reduction within 24 hours (Combo as F/DP/SM; second compound as DP/SM) ([2]; Staphylococcus aureus (918019 - MRSA)): 128 μg/ml | MBC, lowest concentration providing a >3-log reduction within 24 hours (Combo as F/DP/SM; second compound as DP/SM) ([2]; Staphylococcus aureus (959797 - MRSA)): 64 μg/ml | MBC, lowest concentration providing a >3-log reduction within 24 hours (Combo as F/DP/SM; second compound as DP/SM) ([2]; Staphylococcus aureus (ATCC 29213 - MSSA)): 128 μg/ml | MBC, lowest concentration providing a >3-log reduction within 24 hours (Combo as F/DP/SM; second compound as DP/SM) ([2]; Staphylococcus aureus (ATCC 33591) (MRSA)): 256 μg/ml | MBC, lowest concentration providing a >3-log reduction within 24 hours (Combo as F/DP/SM; second compound as DP/SM) ([2]; Staphylococcus aureus (MGH-04)): 256 μg/ml | MBC, lowest concentration providing a >3-log reduction within 24 hours (Combo as F/DP/SM; second compound as DP/SM) ([2]; Staphylococcus aureus (USA-300 CDC- MRSA)): 256 μg/ml | MBC, lowest concentration providing a >3-log reduction within 24 hours (Combo as F/DP/SM; second compound as DP/SM) ([3]; Escherichia coli (854535)): 256 μg/ml | MBC, lowest concentration providing a >3-log reduction within 24 hours (Combo as F/DP/SM; second compound as DP/SM) ([3]; Escherichia coli (928017)): 256 μg/ml | MBC, lowest concentration providing a >3-log reduction within 24 hours (Combo as F/DP/SM; second compound as DP/SM) ([3]; Escherichia coli (ATCC 25922)): 32 μg/ml | MBC, lowest concentration providing a >3-log reduction within 24 hours (Combo as F/DP/SM; second compound as DP/SM) ([4]; Pseudomonas aeruginosa (924190)): >512 μg/ml | MBC, lowest concentration providing a >3-log reduction within 24 hours (Combo as F/DP/SM; second compound as DP/SM) ([4]; Pseudomonas aeruginosa (985543)): 512 μg/ml
